Test results taken from publication PMC8863579, “Effects of pharmacological inhibition of the sodium‐dependent phosphate cotransporter 2b (NPT2b) on intestinal phosphate absorption in mouse and rat models” (Pharmacology Research & Perspectives, 2022).

Assays:
Human PiT1 = biological target: T1, Human PiT1 (Homo sapiens, UniProt Q8WUM9); experiment: 33P-phosphate uptake in CHO cells over-expressing human PiT1; type: cell-based
T1 construct: Full Length cDNA Cloning and Generation of Cell Lines Over-Expressing Human NPT2a, NPT2c, Pit1, and Pit2; host or cells: CHO-K1, pcDNA3.1(+), constitutive
T1 sequence (Q8WUM9 1-679): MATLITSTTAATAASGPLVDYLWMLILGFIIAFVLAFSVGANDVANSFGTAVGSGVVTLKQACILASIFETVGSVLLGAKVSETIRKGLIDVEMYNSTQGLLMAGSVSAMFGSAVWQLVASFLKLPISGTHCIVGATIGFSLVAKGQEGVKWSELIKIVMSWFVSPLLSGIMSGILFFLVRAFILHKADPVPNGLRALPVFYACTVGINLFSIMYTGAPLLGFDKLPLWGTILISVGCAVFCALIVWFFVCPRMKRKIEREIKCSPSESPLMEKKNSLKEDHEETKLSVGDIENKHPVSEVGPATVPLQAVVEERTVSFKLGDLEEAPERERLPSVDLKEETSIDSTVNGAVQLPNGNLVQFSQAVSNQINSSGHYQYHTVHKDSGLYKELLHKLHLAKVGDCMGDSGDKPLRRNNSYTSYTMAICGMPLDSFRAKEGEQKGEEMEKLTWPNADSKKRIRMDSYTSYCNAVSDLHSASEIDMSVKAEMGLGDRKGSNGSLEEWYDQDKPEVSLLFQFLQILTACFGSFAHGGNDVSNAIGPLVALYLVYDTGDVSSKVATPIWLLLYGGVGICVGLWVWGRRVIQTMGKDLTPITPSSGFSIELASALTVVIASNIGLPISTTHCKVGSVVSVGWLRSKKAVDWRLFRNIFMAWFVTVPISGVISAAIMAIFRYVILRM
Procedure: (§1) T‐Rex™ Chinese Hamster Ovary cells (CHO; Thermo Fisher Scientific) stably expressing human, mouse, or rat NPT2b under a tetracycline‐inducible promoter were generated using standard cDNA transfection and clone selection procedures (see Supporting Information). Cells were plated in 96‐well CytoStar‐T® scintillating microplates and were incubated overnight in growth media plus 100 ng/ml of tetracycline to induce expression of NPT2b. The next day, cells were washed 3 times with 200 µl assay buffer (137 mM NaCl, 5.4 mM KCl, 2.8 mM CaCl2, 1.2 mM MgSO4, and 14 mM Tris‐HCl buffer, pH 7.5). LY3358966 serially diluted 1‐to‐3 in DMSO was added to cells with assay buffer. An equal volume of H3 ^33PO4 (PerkinElmer) in assay buffer supplemented with 5 µM potassium phosphate was then added to initiate radiolabeled phosphate (^33P‐phosphate) uptake. […] The plate was immediately read on a Wallac MicroBeta Trilux liquid scintillation counter. Percent inhibition at all concentrations tested was calculated, and IC50 values were then determined using a 4‐parameter logistic curve fitting equation.
(§2) Similar methods were used to measure the effects of LY3358966 on other transporters of interest, except that constitutive promoters were used to generate CHO cells over‐expressing human PiT1 and PiT2. The ^33P‐phosphate uptake was measured after 45 min at 20°C for the NPT2a, NPT2c, PiT1, and PiT2 assays. […]

Human PiT2 = biological target: T2, Human PiT2 (Homo sapiens, UniProt Q08357); experiment: 33P-phosphate uptake in CHO cells over-expressing human PiT2; type: cell-based
T2 construct: Full Length cDNA Cloning and Generation of Cell Lines Over-Expressing Human NPT2a, NPT2c, Pit1, and Pit2; host or cells: CHO-K1, pcDNA3.1(+), constitutive
T2 sequence (Q08357 1-652): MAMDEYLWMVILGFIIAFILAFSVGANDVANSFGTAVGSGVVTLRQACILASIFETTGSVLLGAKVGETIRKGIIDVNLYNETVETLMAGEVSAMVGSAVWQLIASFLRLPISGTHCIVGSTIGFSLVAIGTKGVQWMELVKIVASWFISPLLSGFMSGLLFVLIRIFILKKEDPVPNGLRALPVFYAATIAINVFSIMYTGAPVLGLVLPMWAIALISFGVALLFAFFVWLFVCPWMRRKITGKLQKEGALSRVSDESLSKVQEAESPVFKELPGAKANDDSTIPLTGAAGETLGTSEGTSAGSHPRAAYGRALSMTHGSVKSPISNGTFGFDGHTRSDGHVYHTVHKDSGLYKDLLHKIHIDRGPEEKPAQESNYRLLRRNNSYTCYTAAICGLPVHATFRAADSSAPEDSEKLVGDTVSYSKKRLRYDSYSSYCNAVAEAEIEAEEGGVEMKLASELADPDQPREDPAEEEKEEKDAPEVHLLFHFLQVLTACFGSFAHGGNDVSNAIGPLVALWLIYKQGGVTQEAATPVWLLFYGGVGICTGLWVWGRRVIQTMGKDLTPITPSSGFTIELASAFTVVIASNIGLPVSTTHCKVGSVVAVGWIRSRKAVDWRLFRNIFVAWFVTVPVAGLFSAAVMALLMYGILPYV
Procedure: as §1, §2

## CC1(C)CN(C(=O)NCCCCO)CCN1Cc1cccc(C(=O)Nc2sc3c(c2C(=O)Nc2cc(F)c(CCc4ccc(C(=O)O)cc4)c(F)c2)CCCC3)c1 [LY3358966, 4‐[2‐[2,6‐difluoro‐4‐[[2‐[[3‐[[4‐(4‐hydroxybutylcarbamoyl)‐2,2‐dimethyl‐piperazin‐1‐yl]methyl]benzoyl]amino]‐4,5,6,7‐tetrahydrobenzothiophene‐3‐carbonyl]amino]phenyl]ethyl]benzoic acid]
Human PiT1; 45 min at 20°C
  IC50: > 100 µM
Human PiT1; ratio of IC50 of human PiT1 assay to that of human NPT2b assay
  Selectivity: >3086
Human PiT2; 45 min at 20°C
  IC50: > 100 µM
Human PiT2; ratio of IC50 of human PiT2 assay to that of human NPT2b assay
  Selectivity: >3086
